Results from US20250134794A1, “BIOACTIVE WALNUT PEPTIDES AND COMPOSITIONS FOR TOPICAL TREATMENT OF SKIN” (L'OREAL, priority 2023, published 2025).
Where no end group is shown, it is not given here.

How the values were obtained:
Format in all cases: cell-based
[1] = tested on: Adult Dermal Human Fibroblasts; experiment: Mitochondrial activity in aged fibroblasts (TMRE-Mitochondrial Membrane Potential Assay Kit); settings: 250 μM, 7 days, TMRE stain; control = 1.00
Method: Adult Dermal Human Fibroblasts (Lot 2485, Passage 5, Cell Applications) were expanded and seeded into a 12-well glass bottom plate at a density of 10,000 cells/well. Cells were grown in Eagle's Minimal Essential Medium (EMEM) supplemented with Fetal Bovine Serum (FBS) and Penicillin-Streptomycin. Cells attached overnight and then culture media was aspirated and replaced with media containing either 100 uM or 250 uM of Peptide I, Peptide II, or Peptide III. Cells were cultured for 7 days with treatment with renewal of treatment medium every other day with the exception of weekends. On day 7, cells were stained with tetramethylrhodamine ethyl ester (TMRE) and imaged for mitochondrial activity following the protocol in the TMRE-Mitochondrial Membrane Potential Assay Kit (ab113852, Abcam). The active mitochondria (mean intensity normalized to control) were determined and are shown below, in Table 5.

Interleukin 8 (IL-8) = experiment: Interleukin-8 released from Adult Dermal Human Fibroblasts (LEGENDplex Human Inflammation Panel); settings: 4 days treatment, concentration not given (100 uM or 250 uM)
Method: (§1) Adult Dermal Human Fibroblasts (Lot 2485, Passage 5, Cell Applications) were expanded and seeded into a 48-well plate at a density of 5,000 cells/well. Cells were grown in Eagle's Minimal Essential Medium (EMEM) supplemented with Fetal Bovine Serum (FBS) and Penicillin-Streptomycin. Cells attached overnight and then culture media was aspirated and replaced with media containing either 100 uM or 250 uM of Peptide I, Peptide II, or Peptide III. Cells were cultured for […] with treatment with renewal of treatment medium every other day with the exception of weekends. Media was collected at the end of the culture period. Inflammatory cytokines were quantified by running a LEGENDplex Human Inflammation Panel 1 13-plex (Catalogue #740809, Biolegend. Protein in the media supernatant was also quantified using the Pierce BCA Protein Assay Kit (Catalogue #23225, ThermoFisher). Microsoft Excel and GraphPad Prism were used for additional analysis and data presentation. The amounts of Interleukin 6 (IL-6) and Interleukin 8 (IL-8) released from the Adult Dermal Human Fibroblasts are shown below in Table 1 and graphically depicted in FIG. 1(a) (for IL-6) and FIG. 1(b) (for IL-8).

Interleukin 6 (IL-6) = experiment: Interleukin-6 released from Adult Dermal Human Fibroblasts (LEGENDplex Human Inflammation Panel); settings: 4 days treatment, concentration not given (100 uM or 250 uM)
Method: as §1

Keratinocyte stem cells = experiment: Holoclone count of keratinocyte stem cells; settings: 96 hours, control 24.80 ± 6.14
Method: Keratinocyte stem cells (Lot KSC870, Passage 2, Bioalternatives) were seeded in 96-well plates and cultured in Keratinocyte-SFM supplemented with Epidermal Growth Factor and Pituitary Extract. After 4 hours, media was replaced with that containing Peptide II or Peptide III, alone or in combination. Cells were incubated for 96 hours with treatment renewal after 24 hours. After 96 hours, the medium was removed, and cells were fixed with methanol at −20C. Cells were then stained for 10 minutes with a Papanicolaou solution and imaged. The number of holoclone clones were counted. Data was analyzed and plotted using GraphPad Prism. The holocolone count relative to control (normalized) is shown below in Table 3 for different concentrations of peptide II, Peptide III, and combinations of Peptide II and Peptide III.

[2] = tested on: hepatocyte growth factor (HGF); experiment: Hepatocyte growth factor generated by reconstructed human epidermis (LEGENDplex Human Growth Factor Panel); settings: 250 μM, 7 days, control = 1.00
Method: (§2) Reconstructed human epidermis (RHE) (EPISKIN/S/13, Episkin) was received and samples were prepared for use. Upon arrival, inserts containing the RHE were removed from the multi-plate and placed in a 12-well plate containing maintenance medium. Tissue serving as untreated control were placed in regular maintenance medium; treatment groups were placed in maintenance medium containing 250 uM of Peptide I, II, or III alone or in combination. Medium was aspirated and replaced every other day with the exception of weekends. RHE was cultured at air-liquid interface at 37C, 5% CO2 and saturated humidity for 7 days. Media was collected at the end of the culture period. Growth factors were quantified by running a LEGENDplex Human Growth Factor Panel (Catalogue #740809, Biolegend. Protein in the media supernatant was also quantified using the Pierce BCA Protein Assay Kit (Catalogue #741061, ThermoFisher). Microsoft Excel and GraphPad Prism were used for additional analysis and data presentation. The amounts of epidermal growth factor (EGF), hepatocyte growth factor (HGF), and transforming growth factor alpha (TGFa) generated by the RHE are shown below in Table 2 and graphically shown in FIG. 2(a) (for EGF) and FIG. 2(b) (for HGF), and FIG. 2(c) (for TGFa).

[3] = tested on: Adult Dermal Human Fibroblasts; experiment: Autophagic vacuoles in aged fibroblasts (Autophagy Assay Kit); design: key: “↑” indicates and increase; “↓” indicates a decrease; “↔” indicates no change; settings: 7 days
Method: Adult Dermal Human Fibroblasts (Lot 2485, Passage 5, Cell Applications) were expanded and seeded into a 12-well glass bottom plate at a density of 10,000 cells/well. Cells were grown in Eagle's Minimal Essential Medium (EMEM) supplemented with Fetal Bovine Serum (FBS) and Penicillin-Streptomycin. Cells attached overnight and then culture media was aspirated and replaced with media containing either 100 uM or 250 uM of Peptide I, Peptide II, or Peptide III. Cells were cultured for 7 days with treatment with renewal of treatment medium every other day with the exception of weekends. On day 7, cells were stained and imaged for presence of autophagic vacuoles following the protocol in the Autophagy Assay Kit (ab139484, Abcam). The images were compared to determine whether the number of autophagic vacuoles increased, decreased, or remained unchanged. The results are reported below, in Table 4, where “↑” indicates and increase, “↓” indicates a decrease, and “↔” indicates no change.

[4] = tested on: epidermal growth factor (EGF); experiment: Epidermal growth factor generated by reconstructed human epidermis (LEGENDplex Human Growth Factor Panel); settings: 250 μM, 7 days, control = 1.00
Method: as §2

[5] = tested on: transforming growth factor alpha (TGFa); experiment: Transforming growth factor alpha generated by reconstructed human epidermis (LEGENDplex Human Growth Factor Panel); settings: 250 μM, 7 days, control = 1.00
Method: as §2

Row | Substance | Active Mitochondria (Mean Intensity Normalized to Control) [1] | Pg IL-8/μg Protein (Interleukin 8 (IL-8); first line of each peptide) | Pg IL-8/μg Protein (Interleukin 8 (IL-8); second line of each peptide) | Pg IL-6/μg Protein (Interleukin 6 (IL-6); first line of each peptide) | Pg IL-6/μg Protein (Interleukin 6 (IL-6); second line of each peptide) | Holoclone count (Keratinocyte stem cells; 0.2 mM) | Holoclone count (Keratinocyte stem cells; 0.4 mM) | HGF/μg Protein [2] | Autophagic Vacuoles Presence (Compared to Control) ([3]; 100 μM) | Autophagic Vacuoles Presence (Compared to Control) ([3]; 250 μM) | EGF/μg Protein [4] | TGFa/μg Protein [5]
1 | KVPPLLY [Peptide III] | 0.97 ± 0.15 | 31.14 ± 22.26 Pg/μg Protein | 32.58 ± 4.06 Pg/μg Protein | 291.73 ± 61.03 Pg/μg Protein | 333.61 ± 38.37 Pg/μg Protein | 27.40 ± 6.13 | 36.50 ± 5.97 | 1.01 ± 0.17 | ↑ | ↔ | 1.79 ± 0.28 | 1.93 ± 0.60
2 | TWLPLPR [Peptide I] | 1.158 ± 0.17 | 22.72 ± 6.45 Pg/μg Protein | 42.71 ± 11.29 Pg/μg Protein | 154.52 ± 32.33 Pg/μg Protein | 126.97 ± 29.10 Pg/μg Protein |  |  | 0.98 ± 0.20 | ↑ | ↑ | 1.58 ± 0.17 | 1.37 ± 0.23
3 | YVLLPSPK [Peptide II] | 1.00 ± 0.19 | 20.36 ± 5.39 Pg/μg Protein | 35.68 ± 11.37 Pg/μg Protein | 265.86 ± 58.08 Pg/μg Protein | 257.53 ± 38.82 Pg/μg Protein | 27.60 ± 7.59 | 34.30 ± 8.85 | 1.28 ± 0.25 | ↑ | ↑ | 1.23 ± 0.16 | 1.56 ± 0.29
